From ChEMBL document CHEMBL5465560, “Selectivity Literature for EUbOPEN Chemogenomic Library” (2024)

Key:
[1] = target: Serine/threonine-protein kinase MARK2 (Homo sapiens) (UniProt Q7KZI7); test: Selectivity interaction (ActivX KiNativ screen (kinase selectivity in THP-1 cell lysates)) EUB0000639a MARK2; type: subcellular; conditions: lysate, at 0.2 µM
[2] = target: T1, Tyrosine-protein kinase Mer (Homo sapiens) (UniProt Q12866); test: Selectivity interaction (LanthaScreen Eu Kinase Binding Assay) EUB0001632a MERTK; conditions: at 10 µM
T1 sequence (whole entry): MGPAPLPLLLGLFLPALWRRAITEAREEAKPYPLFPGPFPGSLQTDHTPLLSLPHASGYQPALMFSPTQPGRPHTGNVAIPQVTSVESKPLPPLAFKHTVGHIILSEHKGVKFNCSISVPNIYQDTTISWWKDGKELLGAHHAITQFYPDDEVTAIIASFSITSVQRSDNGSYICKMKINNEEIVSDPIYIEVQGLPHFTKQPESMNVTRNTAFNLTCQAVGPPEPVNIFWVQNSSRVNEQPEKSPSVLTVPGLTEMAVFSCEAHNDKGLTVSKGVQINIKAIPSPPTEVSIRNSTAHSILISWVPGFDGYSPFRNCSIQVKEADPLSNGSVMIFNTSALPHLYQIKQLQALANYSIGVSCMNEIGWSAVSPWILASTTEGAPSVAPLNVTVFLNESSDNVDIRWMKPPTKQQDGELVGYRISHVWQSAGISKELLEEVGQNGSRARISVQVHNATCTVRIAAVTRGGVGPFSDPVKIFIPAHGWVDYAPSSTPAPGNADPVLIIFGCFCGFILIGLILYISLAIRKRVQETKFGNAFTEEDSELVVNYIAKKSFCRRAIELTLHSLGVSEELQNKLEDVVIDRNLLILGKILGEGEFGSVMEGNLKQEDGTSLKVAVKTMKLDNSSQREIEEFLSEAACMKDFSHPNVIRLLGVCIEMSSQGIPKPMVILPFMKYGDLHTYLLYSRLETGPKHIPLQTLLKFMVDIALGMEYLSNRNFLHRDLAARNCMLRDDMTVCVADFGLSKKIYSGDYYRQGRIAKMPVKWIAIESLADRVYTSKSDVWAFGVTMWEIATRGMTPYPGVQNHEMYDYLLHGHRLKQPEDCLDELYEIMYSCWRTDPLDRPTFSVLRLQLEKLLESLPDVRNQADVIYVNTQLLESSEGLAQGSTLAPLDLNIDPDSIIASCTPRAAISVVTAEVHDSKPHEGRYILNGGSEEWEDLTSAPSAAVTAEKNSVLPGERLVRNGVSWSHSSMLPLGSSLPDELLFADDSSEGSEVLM

[3] = target: Receptor-interacting serine/threonine-protein kinase 2 (Homo sapiens, UniProt O43353); test: Selectivity interaction (KinomeScan (DiscoverX)) EUB0000695a RIPK2; conditions: at 100 nM
[4] = target: LIM domain kinase 1 (Homo sapiens) (UniProt P53667); test: Selectivity interaction (KinomeScan (DiscoverX)) EUB0000695a LIMK1; conditions: at 100 nM
[5] = test system: Epidermal growth factor receptor (Homo sapiens), P00533 [G719C]; test: (§1) Selectivity interaction (KinomeScan (DiscoverX)) EUB0000229b EGFR; conditions: at 1 µM
[6] = test system: Epidermal growth factor receptor (Homo sapiens), P00533 [G719S]; test: as §1; conditions: at 1 µM
[7] = test system: Epidermal growth factor receptor (Homo sapiens), P00533 [UNDEFINED MUTATION]; test: as §1; conditions: at 1 µM
[8] = target: Fibroblast growth factor receptor 3 (Homo sapiens, UniProt P22607); test: Selectivity interaction (KinomeScan (DiscoverX)) EUB0000092b FGFR3; conditions: at 10 µM
[9] = target: T2, cGMP-dependent protein kinase 2 (Homo sapiens) (UniProt Q13237); test: Selectivity interaction (KinomeScan (DiscoverX)) EUB0000655a PRKG2; conditions: at 10 µM
T2 sequence (whole entry): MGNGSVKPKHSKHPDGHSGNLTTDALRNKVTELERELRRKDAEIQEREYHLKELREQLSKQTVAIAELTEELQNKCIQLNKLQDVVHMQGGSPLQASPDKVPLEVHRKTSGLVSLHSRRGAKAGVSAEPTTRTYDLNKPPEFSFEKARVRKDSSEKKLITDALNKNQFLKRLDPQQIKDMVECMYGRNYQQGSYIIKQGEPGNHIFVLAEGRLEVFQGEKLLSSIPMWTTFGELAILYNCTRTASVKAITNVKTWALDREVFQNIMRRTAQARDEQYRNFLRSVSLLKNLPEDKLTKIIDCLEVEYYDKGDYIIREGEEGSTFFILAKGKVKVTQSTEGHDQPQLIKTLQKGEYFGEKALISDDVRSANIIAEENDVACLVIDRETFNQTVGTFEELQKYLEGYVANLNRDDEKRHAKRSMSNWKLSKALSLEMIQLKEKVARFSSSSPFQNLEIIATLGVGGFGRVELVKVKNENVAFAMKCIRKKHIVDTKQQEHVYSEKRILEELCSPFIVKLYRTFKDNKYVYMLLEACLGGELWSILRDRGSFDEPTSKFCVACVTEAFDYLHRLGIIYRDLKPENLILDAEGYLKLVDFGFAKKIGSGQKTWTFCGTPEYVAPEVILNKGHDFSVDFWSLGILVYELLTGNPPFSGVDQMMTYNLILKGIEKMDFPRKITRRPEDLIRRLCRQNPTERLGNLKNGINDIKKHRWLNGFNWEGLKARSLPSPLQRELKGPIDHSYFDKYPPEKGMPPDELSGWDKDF

[10] = target: Tyrosine-protein kinase SYK (Homo sapiens, UniProt P43405); test: Selectivity interaction (KinomeScan (DiscoverX)) EUB0000618a SYK; conditions: at 10 µM
[11] = target: Mitogen-activated protein kinase kinase kinase 9 (Homo sapiens) (UniProt P80192); test: Selectivity interaction (KinomeScan (DiscoverX)) EUB0000607a MAP3K9; conditions: at 10 µM
[12] = target: T3, Serine/threonine-protein kinase RIO1 (Homo sapiens) (UniProt Q9BRS2); test: Selectivity interaction (KinomeScan (DiscoverX)) EUB0000666a RIOK1; conditions: at 10 µM
T3 sequence (whole entry): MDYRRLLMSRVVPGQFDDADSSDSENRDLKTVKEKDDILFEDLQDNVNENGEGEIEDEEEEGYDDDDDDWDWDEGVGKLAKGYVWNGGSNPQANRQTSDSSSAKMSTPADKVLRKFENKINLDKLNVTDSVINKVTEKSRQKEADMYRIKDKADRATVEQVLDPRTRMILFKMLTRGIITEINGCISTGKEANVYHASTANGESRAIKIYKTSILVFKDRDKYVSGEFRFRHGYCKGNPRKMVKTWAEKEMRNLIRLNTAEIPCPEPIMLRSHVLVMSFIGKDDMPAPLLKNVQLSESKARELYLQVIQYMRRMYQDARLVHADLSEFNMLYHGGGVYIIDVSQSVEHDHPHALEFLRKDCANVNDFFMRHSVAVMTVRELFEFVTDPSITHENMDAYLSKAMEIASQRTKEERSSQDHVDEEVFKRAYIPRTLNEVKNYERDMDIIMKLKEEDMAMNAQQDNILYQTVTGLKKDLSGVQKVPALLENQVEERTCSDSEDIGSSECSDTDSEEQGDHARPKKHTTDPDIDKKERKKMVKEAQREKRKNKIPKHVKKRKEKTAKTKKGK

Sequence of Serine/threonine-protein kinase MARK2 (Homo sapiens) (Q7KZI7 whole entry): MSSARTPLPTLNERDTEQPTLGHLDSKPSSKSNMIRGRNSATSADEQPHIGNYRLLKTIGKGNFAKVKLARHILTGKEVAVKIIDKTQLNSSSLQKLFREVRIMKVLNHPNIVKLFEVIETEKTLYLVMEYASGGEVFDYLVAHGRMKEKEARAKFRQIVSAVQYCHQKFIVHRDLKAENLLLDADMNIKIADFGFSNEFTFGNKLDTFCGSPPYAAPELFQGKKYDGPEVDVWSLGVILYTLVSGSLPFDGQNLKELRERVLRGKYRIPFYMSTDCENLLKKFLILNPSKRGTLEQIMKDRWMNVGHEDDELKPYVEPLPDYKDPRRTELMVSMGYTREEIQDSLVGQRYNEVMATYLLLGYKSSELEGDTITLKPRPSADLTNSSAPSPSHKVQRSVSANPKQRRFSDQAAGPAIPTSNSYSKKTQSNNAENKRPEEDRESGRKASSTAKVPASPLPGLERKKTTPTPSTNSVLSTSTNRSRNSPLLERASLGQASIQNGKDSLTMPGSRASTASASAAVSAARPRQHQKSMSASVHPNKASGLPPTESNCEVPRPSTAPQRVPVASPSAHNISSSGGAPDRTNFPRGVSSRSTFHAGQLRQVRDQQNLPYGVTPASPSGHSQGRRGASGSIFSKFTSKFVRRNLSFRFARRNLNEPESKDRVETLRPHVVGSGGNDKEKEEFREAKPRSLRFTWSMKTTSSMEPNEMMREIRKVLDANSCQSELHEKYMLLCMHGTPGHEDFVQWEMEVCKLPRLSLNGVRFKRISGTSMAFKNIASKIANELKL
Sequence of Epidermal growth factor receptor (Homo sapiens), P00533 [UNDEFINED MUTATION] (P00533 whole entry, looked up, change not shown): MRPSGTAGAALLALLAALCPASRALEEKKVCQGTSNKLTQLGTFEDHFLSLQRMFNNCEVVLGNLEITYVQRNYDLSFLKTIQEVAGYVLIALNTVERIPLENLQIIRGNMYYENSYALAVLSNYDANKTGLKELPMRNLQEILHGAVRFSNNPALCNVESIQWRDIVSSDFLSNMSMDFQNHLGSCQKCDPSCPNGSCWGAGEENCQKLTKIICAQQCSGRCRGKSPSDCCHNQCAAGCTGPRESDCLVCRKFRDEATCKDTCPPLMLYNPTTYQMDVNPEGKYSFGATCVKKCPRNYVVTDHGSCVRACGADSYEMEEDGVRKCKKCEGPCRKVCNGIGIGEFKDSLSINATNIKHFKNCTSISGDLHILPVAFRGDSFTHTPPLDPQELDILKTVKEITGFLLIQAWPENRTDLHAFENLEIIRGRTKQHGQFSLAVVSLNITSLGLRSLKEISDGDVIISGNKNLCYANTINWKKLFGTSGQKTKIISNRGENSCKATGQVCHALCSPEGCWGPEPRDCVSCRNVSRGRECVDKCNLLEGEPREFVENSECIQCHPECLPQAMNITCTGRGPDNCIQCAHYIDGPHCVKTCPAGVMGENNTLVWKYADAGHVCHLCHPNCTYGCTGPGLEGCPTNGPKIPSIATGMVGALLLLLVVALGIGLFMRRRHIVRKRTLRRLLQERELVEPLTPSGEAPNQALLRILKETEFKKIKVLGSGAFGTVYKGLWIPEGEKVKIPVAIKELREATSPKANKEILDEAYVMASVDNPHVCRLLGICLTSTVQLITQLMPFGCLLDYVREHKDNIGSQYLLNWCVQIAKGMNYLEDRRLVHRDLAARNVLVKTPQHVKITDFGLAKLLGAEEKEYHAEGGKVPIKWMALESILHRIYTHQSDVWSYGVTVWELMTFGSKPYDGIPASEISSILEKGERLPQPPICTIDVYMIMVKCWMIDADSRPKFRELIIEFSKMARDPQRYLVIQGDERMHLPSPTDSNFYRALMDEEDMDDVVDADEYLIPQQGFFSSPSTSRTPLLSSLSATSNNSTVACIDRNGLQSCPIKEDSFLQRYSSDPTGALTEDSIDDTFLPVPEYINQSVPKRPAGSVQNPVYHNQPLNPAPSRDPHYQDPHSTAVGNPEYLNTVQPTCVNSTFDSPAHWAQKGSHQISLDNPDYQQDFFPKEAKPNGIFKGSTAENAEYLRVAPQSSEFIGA
Sequence of Epidermal growth factor receptor (Homo sapiens), P00533 [G719C] (P00533 whole entry G719C): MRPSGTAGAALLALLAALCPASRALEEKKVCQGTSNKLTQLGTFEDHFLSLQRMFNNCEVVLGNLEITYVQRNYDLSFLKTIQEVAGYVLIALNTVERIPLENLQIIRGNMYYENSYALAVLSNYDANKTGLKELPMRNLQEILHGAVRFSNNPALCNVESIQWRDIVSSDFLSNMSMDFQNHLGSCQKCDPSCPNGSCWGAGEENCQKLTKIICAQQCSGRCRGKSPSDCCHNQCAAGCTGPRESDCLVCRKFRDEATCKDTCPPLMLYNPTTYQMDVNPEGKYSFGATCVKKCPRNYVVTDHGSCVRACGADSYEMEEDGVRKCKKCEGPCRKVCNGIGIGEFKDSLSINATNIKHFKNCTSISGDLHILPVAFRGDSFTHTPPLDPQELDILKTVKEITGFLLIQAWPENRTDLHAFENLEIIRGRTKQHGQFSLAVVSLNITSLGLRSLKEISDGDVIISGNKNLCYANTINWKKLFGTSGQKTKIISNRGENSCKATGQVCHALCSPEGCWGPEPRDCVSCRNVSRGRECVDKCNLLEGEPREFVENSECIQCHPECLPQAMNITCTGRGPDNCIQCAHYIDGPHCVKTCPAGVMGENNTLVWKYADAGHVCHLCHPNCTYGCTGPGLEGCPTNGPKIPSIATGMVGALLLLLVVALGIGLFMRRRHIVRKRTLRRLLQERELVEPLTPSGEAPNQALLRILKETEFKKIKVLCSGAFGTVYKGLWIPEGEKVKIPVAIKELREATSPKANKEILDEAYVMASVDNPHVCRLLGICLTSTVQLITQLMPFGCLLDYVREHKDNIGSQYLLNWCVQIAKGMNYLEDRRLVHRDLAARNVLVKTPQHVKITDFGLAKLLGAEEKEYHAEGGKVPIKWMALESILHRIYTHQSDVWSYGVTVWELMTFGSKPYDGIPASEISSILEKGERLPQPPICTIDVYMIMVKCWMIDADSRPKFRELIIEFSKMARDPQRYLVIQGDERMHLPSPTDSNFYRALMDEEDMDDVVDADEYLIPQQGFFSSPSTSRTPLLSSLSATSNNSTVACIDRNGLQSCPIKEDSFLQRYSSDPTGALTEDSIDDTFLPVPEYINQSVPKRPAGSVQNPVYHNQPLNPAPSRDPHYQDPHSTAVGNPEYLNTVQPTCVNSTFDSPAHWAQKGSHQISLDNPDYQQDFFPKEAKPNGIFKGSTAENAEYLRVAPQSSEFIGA
Sequence of Mitogen-activated protein kinase kinase kinase 9 (Homo sapiens) (P80192 whole entry, looked up): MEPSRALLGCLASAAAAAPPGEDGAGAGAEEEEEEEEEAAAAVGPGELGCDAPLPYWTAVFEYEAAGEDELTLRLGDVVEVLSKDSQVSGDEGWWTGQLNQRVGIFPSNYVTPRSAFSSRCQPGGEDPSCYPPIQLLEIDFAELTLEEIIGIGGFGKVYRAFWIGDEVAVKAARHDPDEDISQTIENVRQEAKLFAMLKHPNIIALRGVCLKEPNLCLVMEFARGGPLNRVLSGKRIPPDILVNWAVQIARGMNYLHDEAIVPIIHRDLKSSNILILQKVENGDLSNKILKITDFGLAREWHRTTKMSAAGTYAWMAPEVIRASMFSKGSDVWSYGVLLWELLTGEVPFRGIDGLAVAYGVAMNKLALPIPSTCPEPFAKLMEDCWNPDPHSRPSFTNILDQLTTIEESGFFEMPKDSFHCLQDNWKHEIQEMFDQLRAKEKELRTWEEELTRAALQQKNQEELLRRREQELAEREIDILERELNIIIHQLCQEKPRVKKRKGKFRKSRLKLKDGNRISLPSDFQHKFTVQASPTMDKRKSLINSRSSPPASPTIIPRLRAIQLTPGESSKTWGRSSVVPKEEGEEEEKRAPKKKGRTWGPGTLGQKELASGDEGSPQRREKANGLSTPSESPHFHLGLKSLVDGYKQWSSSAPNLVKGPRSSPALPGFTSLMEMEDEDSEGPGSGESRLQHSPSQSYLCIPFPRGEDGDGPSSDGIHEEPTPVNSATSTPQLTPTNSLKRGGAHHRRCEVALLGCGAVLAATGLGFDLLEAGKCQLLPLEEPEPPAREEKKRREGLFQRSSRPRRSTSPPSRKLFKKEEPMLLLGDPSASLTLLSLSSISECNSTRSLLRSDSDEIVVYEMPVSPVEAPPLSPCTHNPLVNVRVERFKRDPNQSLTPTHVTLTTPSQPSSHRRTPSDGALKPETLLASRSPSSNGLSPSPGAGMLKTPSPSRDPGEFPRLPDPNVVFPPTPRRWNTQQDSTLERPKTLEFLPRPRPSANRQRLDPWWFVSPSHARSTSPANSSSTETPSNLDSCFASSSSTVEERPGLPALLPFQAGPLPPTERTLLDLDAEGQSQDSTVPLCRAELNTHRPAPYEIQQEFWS
Sequence of Receptor-interacting serine/threonine-protein kinase 2 (O43353 whole entry, the tested form may be a part): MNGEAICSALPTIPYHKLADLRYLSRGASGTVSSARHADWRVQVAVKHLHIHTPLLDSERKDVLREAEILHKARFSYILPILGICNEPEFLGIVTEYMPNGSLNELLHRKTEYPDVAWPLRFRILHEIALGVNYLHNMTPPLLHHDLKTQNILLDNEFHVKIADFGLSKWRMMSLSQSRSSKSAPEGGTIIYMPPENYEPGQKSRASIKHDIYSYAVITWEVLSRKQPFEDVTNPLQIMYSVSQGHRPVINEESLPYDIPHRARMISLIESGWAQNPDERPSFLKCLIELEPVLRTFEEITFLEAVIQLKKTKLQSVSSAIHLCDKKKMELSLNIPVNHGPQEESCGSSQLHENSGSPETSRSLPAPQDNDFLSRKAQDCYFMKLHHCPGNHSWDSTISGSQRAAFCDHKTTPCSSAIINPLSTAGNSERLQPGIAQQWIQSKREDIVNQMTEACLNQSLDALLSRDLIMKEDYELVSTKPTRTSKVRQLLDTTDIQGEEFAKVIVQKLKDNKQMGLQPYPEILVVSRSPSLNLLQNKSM

For CC[C@@H]1[C@H](F)C(=O)N[C@@H]1COc1nccc2cc(C(N)=O)c(OC)cc12 [ZIMLOVISERTIB], the % of inhibition [1] was 8.4%.
Cn1cc(-n2cnc3c(NCc4nc5cc(Cl)c(Cl)cc5[nH]4)nc(N4CCOCC4)nc32)cn1 gave a % of inhibition [2] of -48.1%.
Cc1cc(F)c(C(=O)Nc2cccc(-c3nncn3C(C)C)n2)cc1-n1cnc(C2CC2)c1 gave a % of control [3] of 100% and a % of control [4] of 99%.
In the case of COc1cc(N(C)c2ccnc3ccc(C(F)(F)F)cc23)cc(OC)c1OC, the % binding [5] is reported as 92%, the % binding [6] is reported as 92% and the % binding [7] is reported as 84%.
In the case of CCC(=O)N1CCN(c2ccc(-n3c(=O)ccc4cnc5ccc(-c6cnc7ccccc7c6)cc5c43)cc2C(F)(F)F)CC1, the % of control [8] is reported as 42%.
Compound CN(C)CCOc1ccc(-c2nc(-c3ccncc3)c(-c3ccc4c(c3)CC/C4=N\O)[nH]2)cc1 has a % of control [9] of 29%.
Work on O[C@H]1CC[C@H](Nc2ncc3nc(Nc4c(F)cc(F)cc4F)n([C@H]4CCOC4)c3n2)CC1 yielded a % of control [10] of 100%.
With CNC(=O)Nc1ccc(-c2nc(N3CC4CCC(C3)O4)c3cnn(C4CCC5(CC4)OCCO5)c3n2)cc1 the % of control [11] was 97%.
Compound O=C(NOC[C@H](O)CO)c1ccc(F)c(F)c1Nc1ccc(I)cc1F has a % of control [12] of 95%.
